Among the data in PubChem BioAssay AID328 (DTP/NCI, 2004) are T/C values, retold here.

This test relates to BDF1 mice, P388 leukemia ip, median survival T/C. Nature of the test: NCI In Vivo Anticancer Drug Screen. Data for tumor model P388 Leukemia (intraperitoneal) in B6D2F1 (BDF1) mice. As to conditions: endpoint: median survival time, higher = longer survival. In a few lines: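 T/C = treated-group survival ÷ vehicle-control survival; tumour transplanted into mice before dosing.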

The mark [1] stands for this setting: dose: 3.12 mg/kg/injection, schedule: Q01DX009 (ip), vehicle: water.
[2] abbreviates: dose: 6.25 mg/kg/injection, schedule: Q01DX009 (ip), vehicle: water.
Setting [3] is: dose: 12.5 mg/kg/injection, schedule: Q01DX009 (ip), vehicle: water.
Where [4] appears, read: dose: 25.0 mg/kg/injection, schedule: Q01DX009 (ip), vehicle: water.
The mark [5] stands for this setting: dose: 50.0 mg/kg/injection, schedule: Q01DX009 (ip), vehicle: water.
Where [6] appears, read: dose: 100.0 mg/kg/injection, schedule: Q01DX009 (ip), vehicle: water.
Setting [7] is: dose: 50.0 mg/kg/injection, schedule: Q01DX009 (ip), vehicle: saline with Tween-80.
[8] abbreviates: dose: 100.0 mg/kg/injection, schedule: Q01DX009 (ip), vehicle: saline with Tween-80.
[9] abbreviates: dose: 200.0 mg/kg/injection, schedule: Q01DX009 (ip), vehicle: saline with Tween-80.
The mark [10] stands for this setting: dose: 200.0 mg/kg/injection, schedule: Q01DX009 (ip), vehicle: water.
Setting [11] is: dose: 400.0 mg/kg/injection, schedule: Q01DX009 (ip), vehicle: water.
Setting [12] is: dose: 100.0 mg/kg/injection, schedule: Q04DX003 (ip), vehicle: saline with Tween-80.
Setting [13] is: dose: 200.0 mg/kg/injection, schedule: Q04DX003 (ip), vehicle: saline with Tween-80.
[14] abbreviates: dose: 400.0 mg/kg/injection, schedule: Q04DX003 (ip), vehicle: saline with Tween-80.

Several values for one entry are separate records, joined by “and”; a condition that tells them apart may be missing. Equal entries are not always repeated. Inconclusive results and toxic doses are left out. Residues, ends and D or L forms follow the SMILES beside them. *: point of attachment. Boc = CC(C)(C)OC(=O)*; OBn = c1ccc(CO*)cc1

Regarding `CS(=O)(=O)OCc1c(O)c2c(c(O)c1COS(C)(=O)=O)C(=O)C=CC2=O`, the T/C was 103 % of control under setting [1]; 102 % of control (dose: 3.12 mg/kg/injection, schedule: Q04DX003 (ip), vehicle: water); 114 % of control under setting [2]; 102 % of control (dose: 6.25 mg/kg/injection, schedule: Q04DX003 (ip), vehicle: water); 106 % of control under setting [3]; 93 % of control (dose: 12.5 mg/kg/injection, schedule: Q04DX003 (ip), vehicle: water). Also, the T/C by setting is: under setting [4], 107 % of control; (dose: 25.0 mg/kg/injection, schedule: Q04DX003 (ip), vehicle: water) 101 % of control; under setting [5], 116 % of control; (dose: 50.0 mg/kg/injection, schedule: Q04DX003 (ip), vehicle: water) 102 % of control; under setting [6], 94 % of control; (dose: 100.0 mg/kg/injection, schedule: Q04DX003 (ip), vehicle: water) 108 % of control and 109 % of control.
With `COc1cccc2c1C(=O)c1c(O)c3c(c(O)c1C2=O)C[C@@](O)(/C(C)=N\O)C[C@@H]3OC1CC(N)C(O)C(C)O1` (stereo not given in full), the T/C was 112 % of control (dose: 1.56 mg/kg/injection, schedule: Q01DX009 (ip), vehicle: water); 105 % of control under setting [1]; 161 % of control under setting [2]; 210 % of control under setting [3]; 103 % of control under setting [4].
On to `c1ccc(-c2nc3ccccc3nc2-c2ccc(Cc3ccc(-c4nc5ccccc5nc4-c4ccccc4)cc3)cc2)cc1`, for which the T/C under setting [7] is 88 % of control, the T/C under setting [8] was 103 % of control and the T/C under setting [9] is 88 % of control.
On to `FC(F)(F)c1ccc2c(c1)N(CCCN1CCN(CCN3CCCCC3)CC1)c1ccccc1S2`, for which the T/C was 118 % of control (dose: 12.5 mg/kg/injection, schedule: Q01DX009 (ip), vehicle: saline); 115 % of control (dose: 25.0 mg/kg/injection, schedule: Q01DX009 (ip), vehicle: saline); 86 % of control (dose: 50.0 mg/kg/injection, schedule: Q01DX009 (ip), vehicle: saline).
Regarding `CCOC(CN(Cc1ccc(OC)c(OCc2ccccc2)c1)S(=O)(=O)c1ccc(C)cc1)OCC`, the T/C is 89 % of control under setting [4]; 99 % of control under setting [5]; 92 % of control under setting [6]; 112 % of control under setting [10]; 99 % of control under setting [11].
As for `CC(=O)CC(=O)Nc1ccccn1`, the T/C (dose: 25.0 mg/kg/injection, schedule: Q01DX009 (ip), vehicle: saline with Tween-80) is 95 % of control; the T/C under setting [7] was 92 % of control; the T/C under setting [8] is 98 % of control; the T/C under setting [9] is 104 % of control.
Consider `CC(C)(C)OC(=O)NCC(=O)NCC(=O)NCC(=O)OCc1ccccc1` (Boc-Gly-Gly-Gly-OBn), for which the T/C is 95 % of control (dose: 50.0 mg/kg/injection, schedule: Q01DX005 (ip), vehicle: saline with Tween-80) and 98 % of control (dose: 100.0 mg/kg/injection, schedule: Q01DX005 (ip), vehicle: saline with Tween-80).
Take `Cc1cc(N(CCCl)CCCl)ccc1N=Nc1ccccc1C(=O)[O-].Cc1cc(N(CCCl)CCCl)ccc1N=Nc1ccccc1C(=O)[O-].[Cu+2]`: the T/C is 240 % of control and 105 % of control (dose: 16.5 mg/kg/injection, schedule: Q04DX003 (ip), vehicle: saline with Tween-80); 263 % of control and 165 % of control (dose: 25.0 mg/kg/injection, schedule: Q04DX003 (ip), vehicle: saline with Tween-80); 227 % of control (dose: 37.5 mg/kg/injection, schedule: Q04DX003 (ip), vehicle: saline with Tween-80).
On to `Cc1cc(Cl)ccc1NS(=O)(=O)c1ccc(Br)cc1`, for which the T/C is 90 % of control under setting [12], 90 % of control under setting [13] and 95 % of control under setting [14].
On to `O=C(Cn1ccc(O)cc1=O)N1CCOCC1`, for which the T/C under setting [6] is 105 % of control, the T/C under setting [10] was 104 % of control and the T/C under setting [11] was 104 % of control.
Turning to `CC(C)(C)C(CO)CO`, the T/C by setting is: under setting [7], 93 % of control; under setting [8], 100 % of control; under setting [9], 100 % of control.
Consider `CC1=C2CC[C@H]3[C@@H]4CC[C@H](O)[C@@]4(C)CC[C@@H]3[C@@]2(C)CCC1=O`, for which the T/C was 95 % of control under setting [12], 95 % of control under setting [13] and 100 % of control under setting [14].
Take `COc1ccc2[nH]c3c(C)c4cc[n+](CCCCCCCC[n+]5ccc6c(C)c7[nH]c8ccc(OC)cc8c7c(C)c6c5)cc4c(C)c3c2c1`: for the setting “dose: 6.25 mg/kg/injection, schedule: Q04DX003 (ip), vehicle: other”, the T/C was 121 % of control.
For the compound `Nc1n[nH]c(N)n1.[Ni]`, the T/C reads like this: under setting [8], 100 % of control; under setting [12], 91 % of control; under setting [9], 95 % of control and 115 % of control; under setting [13], 87 % of control; (dose: 400.0 mg/kg/injection, schedule: Q01DX009 (ip), vehicle: saline with Tween-80) 109 % of control; under setting [14], 100 % of control.
For the compound `Cc1ccc(N=C(c2ccccc2)c2ccc([N+](=O)[O-])cc2)cc1`, the T/C (dose: 100.0 mg/kg/injection, schedule: Q01DX001 (ip), vehicle: Klucel (hydroxypropylcellulose) (HPC)) is 108 % of control; the T/C (dose: 200.0 mg/kg/injection, schedule: Q01DX001 (ip), vehicle: Klucel (hydroxypropylcellulose) (HPC)) was 100 % of control; the T/C (dose: 400.0 mg/kg/injection, schedule: Q01DX001 (ip), vehicle: Klucel (hydroxypropylcellulose) (HPC)) was 104 % of control.
Regarding `Cc1ccc(C(=O)C2(c3ccc(C)cc3)OC(c3ccc(C)cc3)=C(c3ccc(C)cc3)S2)cc1` (stereo not given), the T/C is 104 % of control (dose: 50.0 mg/kg/injection, schedule: Q01DX009 (ip), vehicle: other); 100 % of control (dose: 100.0 mg/kg/injection, schedule: Q01DX009 (ip), vehicle: other); 100 % of control (dose: 200.0 mg/kg/injection, schedule: Q01DX009 (ip), vehicle: other).
For the compound `CC(=O)OC1CCC(C(C)(C)C)CC1` (stereo not given), the T/C by setting is: (dose: 50.0 mg/kg/injection, schedule: Q04DX003 (ip), vehicle: saline) 95 % of control; (dose: 100.0 mg/kg/injection, schedule: Q04DX003 (ip), vehicle: saline) 109 % of control; (dose: 200.0 mg/kg/injection, schedule: Q04DX003 (ip), vehicle: saline) 109 % of control.
For `C=C(Br)COCC`, the T/C runs as follows: (dose: 5.78 mg/kg/injection, schedule: Q01DX001 (ip), vehicle: saline) 95 % of control; (dose: 11.56 mg/kg/injection, schedule: Q01DX001 (ip), vehicle: saline) 113 % of control; (dose: 13.75 mg/kg/injection, schedule: Q04DX003 (ip), vehicle: saline) 95 % of control; (dose: 23.12 mg/kg/injection, schedule: Q01DX001 (ip), vehicle: saline) 104 % of control; (dose: 27.5 mg/kg/injection, schedule: Q04DX003 (ip), vehicle: saline) 109 % of control; (dose: 35.0 mg/kg/injection, schedule: Q01DX009 (ip), vehicle: saline) 100 % of control. Besides, the T/C is 100 % of control (dose: 46.25 mg/kg/injection, schedule: Q01DX001 (ip), vehicle: saline); 109 % of control (dose: 55.0 mg/kg/injection, schedule: Q01DX009 (ip), vehicle: saline); 90 % of control (dose: 55.0 mg/kg/injection, schedule: Q04DX003 (ip), vehicle: saline); 110 % of control (dose: 80.0 mg/kg/injection, schedule: Q04DX003 (ip), vehicle: saline); 113 % of control (dose: 92.5 mg/kg/injection, schedule: Q01DX001 (ip), vehicle: saline); 100 % of control (dose: 125.0 mg/kg/injection, schedule: Q04DX003 (ip), vehicle: saline). Further, the T/C (dose: 185.0 mg/kg/injection, schedule: Q04DX003 (ip), vehicle: saline) is 100 % of control.
Regarding `CCCOc1cc([N+](=O)[O-])cc([N+](=O)[O-])c1`, the T/C was 104 % of control (dose: 100.0 mg/kg/injection, schedule: Q01DX001 (ip), vehicle: saline with Tween-80) and 94 % of control (dose: 200.0 mg/kg/injection, schedule: Q01DX001 (ip), vehicle: saline with Tween-80).
